Measured values reported in US20050244413A1, “Compositions and methods for treating cancer using cytotoxic CD44 antibody immunoconjugates and chemotherapeutic agents” (priority 2002, published 2005).
Values joined by “and” are separate entries in the source; they are usually repeats but may differ in a detail not shown here. Identical values can stand only once. Like-named read-outs stand apart in the source and are kept apart here.

How the values were obtained:
[1] = Tolerability in FaDu combination experiments (body weight); format: in vivo, mouse
Method: (§1) Tumor sizes and body weights were recorded 2-3 times per week. Tumor sizes were measured with a calliper (length and width) and the volume was calculated according to the following formula: volume (length)×(width)^2×([…]). The tolerability of the treatment was monitored by measuring mouse weight during the whole observation period. […] For calculation of the mean tumor volumes per group, the last values of tumor size for individual animals were carried forward in case that these animals had to be sacrificed due to large tumor burden before the whole group was terminated. In addition to the absolute tumor volume in mm^3, the relative tumor volumes (RTV) were calculated as follows: […]
(§2) In addition, for some experiments, the mean time for tumors to reach 8 times (T8T) their initial sizes were also calculated. The growth delay factor (GDF8) was then calculated accordingly. Percentages of mean relative tumor volumes of treated versus control groups (T/C) were calculated on the days indicated. For statistical evaluation of combination therapies exact Wilcoxon tests were used. Tolerability was assessed by monitoring body weight changes.

FaDuDD tumors [2] = experiment: BIWI 1 combination with cisplatin in nude mice xenografted with FaDuDD tumors; format: in vivo, mouse; conditions: cisplatin 4 mg/kg i.v. q7dx4
Method: (§3) The antibody solution was injected into the tail vein with an injection volume of 200 μl for a 25 g mouse. In the control groups without BIWI 1 treatment animals were injected i.v. with PBS. […] The solution was injected into the tail vein with an injection volume of 200 μl for a 25 g mouse. […] The solution was injected into the tail vein with an injection volume of 200 μl for a 25 g mouse.
(§4) Tumor sizes and body weights were recorded 2-3 times per week. Tumor sizes were measured with a calliper (length and width) and the volume was calculated according to the following formula: volume (length)×(width)^2×([…]). The tolerability of the treatment was monitored by measuring mouse weight during the whole observation period. […] For calculation of the mean tumor volumes per group, the last values of tumor size for individual animals were carried forward in case that these animals had to be sacrificed due to large tumor burden before the whole group was terminated. In addition to the absolute tumor volume in mm^3, the relative tumor volumes (RTV) were calculated as follows:
(§5) RTV=(tumor volume at day x)/(tumor volume at start of treatment)×100 For the evaluation of treatment efficacy the following parameters were calculated: • T/C (%)=(mean RTV of treated group)/(mean RTV of control group)×100 • T4T (tumor quadrupling time)=time until the mean RTV reaches 400% • GDF4 (growth delay factor)=T4T treated/T4T control.
as §2
A different set of experiments was done with cisplatin. In a pilot experiment, a dose of 4 mg/kg cisplatin administered i.v. four times in weekly intervals was determined to be non-curative in this model, and also represents the maximum tolerated dose in the mouse strain used. This dose of cisplatin was combined with BIWI 1 at the non-curative doses of 200 μg/kg DM1 and 300 Ag/kg DM1 already used in the previous experiment. […] In the latter combination group 2/8 complete tumor regressions could be observed. […] Treatment was well tolerated in all groups.

cells = conditions: free DM1, literature background; cited from earlier work
FaDuDD tumors [3] = experiment: BIWI 1 combination with docetaxel in nude mice xenografted with FaDuDD tumors; format: in vivo, mouse; conditions: docetaxel 3 mg/kg i.v. q7dx4
Method: as §3, §4, §5, §2
To assess the efficacy of BIWI 1 in combination with the taxane docetaxel (Taxotere), non-curative doses of both drugs were tested as single agents or in combination in nude mice xenografted with FADuDD tumors. In pilot experiments a dose of 3 mg/kg docetaxel (q7dx4) was determined to be non-curative in this model. BIWI 1 was used at the non-curative dose of 200 μg/kg DM 1 and at a somewhat higher dose (300 μg/kg DM1).
The effect was somewhat more pronounced in the two BIWI 1 monotherapy treatment groups with T/C 41-30% and GDF4: 2.8-4.4. Complete tumor regression could be observed in 1/8 cases with the higher BIWI 1 dose. […] Treatment was well tolerated in all groups, except for a slight unexplained weight loss (approx. −5%) in the docetaxel monotherapy group.

MDA-MB-453 tumors [4] = system: MDA-MB-453 tumors
Method: Experiments were performed using nude mice xenografted subcutaneously with the human breast carcinoma cell line MDA-MBA53. […] The efficacy of these combinations was compared to those of the respective monotherapies by i) analysing the tumor volumes over time and ii) by determining the time for tumors to reach a certain size (tumor growth delay).
The dilutions were prepared freshly for each application or stored at +4° C. during the whole treatment period. […] 200 μl of solutions with different concentrations were injected into the tail vein. Docetaxel (Taxotere®, Aventis, 10 mg/ml) was diluted in 0.9% NaCl. 200 μl of solutions with different concentrations were injected into the tail vein.
Briefly, 1×10^7 MDA-MB-453 cells (ATCC No. HTB-131) were injected into the mammary fat pad of female NMRI nu/nu mice. After reaching a volume of approximately 1000 mm^3 tumors were excised, cut into 4×4 mm pieces and passaged further subcutaneously. Tumor fragments were cryoconserved in 90% RPMI 1640/10% dimethylsulfoxide (slow freezing process down to −80° C., storage in liquid nitrogen). For further passaging, frozen tumor fragments were thawed, washed 3 times in PBS and implanted subcutaneously into the right and left flanks of a 4-5 female NMRI nu/nu mice. Tumors of these mice were then used to prepare the animals for a therapy experiment. Tumors were excised with a size of approximately 10 mm in diameter, cut into 2×2 mm pieces and implanted subcutaneously into the right flank of 6-8 week old female NMRI nu/nu mice. Approximately twice as many animals as needed for the experiment were prepared. When tumors reached a size of 5-10 mm in diameter (10-14 days after implantation), animals were randomised and treatments were started. Animals were obtained from Harlan (Germany) or M&B (Denmark). Tumor sizes and body weights were recorded as described in Section 2.7.

[5] = Tolerability in MDA-MB-453 combination experiments (body weight); format: in vivo, mouse; conditions: doxorubicin 6 mg/kg monotherapy group; combination group with BIWI 1 75 μg/kg DM1; 6 animals per group
Method: as §1, §2

MDA-MB-453 tumors [6] = experiment: BIWI 1 combination with doxorubicin in nude mice xenografted with MDA-MB-453 tumors; format: in vivo, mouse; conditions: doxorubicin 6 mg/kg i.v. q7dx4
Method: Similar experiments as outlined under Section 2.6 were undertaken in a human breast carcinoma xenograft model. Experiments were performed using nude mice xenografted subcutaneously with the human breast carcinoma cell line MDA-MBA53. […] The efficacy of these combinations was compared to those of the respective monotherapies by i) analysing the tumor volumes over time and ii) by determining the time for tumors to reach a certain size (tumor growth delay).
The dilutions were prepared freshly for each application or stored at +4° C. during the whole treatment period. […] Doxorubicin (Doxorubicin “Ebewe”®, 2 mg/ml) was diluted in PBS. 200 μl of solutions with different concentrations were injected into the tail vein. Docetaxel (Taxotere®, Aventis, 10 mg/ml) was diluted in 0.9% NaCl. 200 μl of solutions with different concentrations were injected into the tail vein.
The xenograft model was handled slightly different as outlined under Section 2.1. Briefly, 1×10^7 MDA-MB-453 cells (ATCC No. HTB-131) were injected into the mammary fat pad of female NMRI nu/nu mice. After reaching a volume of approximately 1000 mm^3 tumors were excised, cut into 4×4 mm pieces and passaged further subcutaneously. Tumor fragments were cryoconserved in 90% RPMI 1640/10% dimethylsulfoxide (slow freezing process down to −80° C., storage in liquid nitrogen). For further passaging, frozen tumor fragments were thawed, washed 3 times in PBS and implanted subcutaneously into the right and left flanks of a 4-5 female NMRI nu/nu mice. Tumors of these mice were then used to prepare the animals for a therapy experiment. Tumors were excised with a size of approximately 10 mm in diameter, cut into 2×2 mm pieces and implanted subcutaneously into the right flank of 6-8 week old female NMRI nu/nu mice. Approximately twice as many animals as needed for the experiment were prepared. When tumors reached a size of 5-10 mm in diameter (10-14 days after implantation), animals were randomised and treatments were started. Animals were obtained from Harlan (Germany) or M&B (Denmark). Tumor sizes and body weights were recorded as described in Section 2.7.

FaDu tumors [7] = experiment: BIWI 1 combination therapy with paclitaxel in the FaDu xenograft model; format: in vivo, mouse; conditions: or both
Method: (§6) In vivo anti-tumor efficacy of BIWI 1 was tested in three nude mouse xenograft models applying antigen-positive human tumors: A431 (ATCC # CRL 1555; epidermoid carcinoma of the vulva), FaDu (ATCC # HTB 43; squamous cell carcinoma of the pharynx), and MDA-MB 453 (ATCC # HTB-131; breast carcinoma). The cells were received from ATCC and cultured in RPMI1640 medium containing 10% fetal calf serum and supplements. 1×10^6 tumors cells were transplanted subcutaneously into the right flank of 6 week old female NMRI-nu/nu mice. Tumor growth was monitored by measuring tumor size. A tumor response was rated as complete response when the tumor completely disappeared at any time after start of treatment. The response was rated as partial response when the tumor volume decreased after treatment but thereafter started regrowing. The tolerability of the treatment was monitored by measuring mouse weight during the observation period.
Mice were randomised into the following treatment groups (treatment/initial mean tumor volume/tumor volume range/number of mice): • Group 1: Control (PBS)/197 mm^3/65-402 mm^3/8 mice • Group 2: Paclitaxel/182 mm^3 /65%-302 mm^3/8 mice • Group 3: BIWI 1/208 mm^3 /65-382 mm^3/8 mice • Group 4: BIWI 1+paclitaxel/159 mm^3 /79-335 mm^3 /7 mice
Treatment consisted either of five i.v. injections of BIWI 1 (7 mg/kg corresponding to 100 μg/kg DM1) at day 1, 3, 5, 8, 10, or of six i.p. injections of paclitaxel (10 mg/kg) at day 2, 4, 6, 9, 11, 13, respectively, or a combination thereof. Control animals were treated with PBS.
One tumor completely dissappeared during treatment and the animal remained tumor free until the end of the observation period.

[8] = system: breast carcinoma xenografts; experiment: BIWI 1 (five daily doses) combination with paclitaxel in human breast carcinoma xenograft model; format: in vivo, mouse
Method: BIWI was given i.v. into the tail vein at doses of 50 μg DM1/kg/day or 100 μg DM1/kg/day for five consecutive days. Paclitaxel (Taxol®) was given i.v. at 20 or 10 mg/kg, doxorubicin (Adriamycin®) at 6 or 4 mg/kg only on the first day of the treatment period, in each case 4 hours after BIWI 1 treatment. In mice bearing breast carcinoma xenografts with a volume of approximately 100 mm3.

FaDu tumors [9] = experiment: BIWI 1 monotherapy in FaDu xenografted nude mice; format: in vivo, mouse; conditions: 21 mg/kg/d control antibody i.v., five consecutive days
Method: as §6
Mice were randomised into the following treatment groups (treatment/initial mean tumor volume/tumor volume range/number of mice): • Group 1: Control (PBS)/142±82 mm^3/34-268 mm^3 /8 mice. • Group 2: BIWA 4 (21 mg/kg/d)/134±86 mm^3/42-268 mm^3/6 mice. • Group 3: BIWI 1 (2.1 mg/kg/d) 149±96 mm^3/50-268 mm^3/6 mice. • Group 4: BIWI 1 (7 mg/kg/d)/132±97 mm^3 42-268 mm^3/6 mice. • Group 5: BIWI 1 (21 mg/kg/d)/129±74 mm^3/50-231 mm^3/6 mice.
Groups of 6 mice were treated with 2.1 mg/kg/d BIWI 1, 7 mg/kg/d BIWI 1, 21 mg/kg/d BIWI 1, and 21 mg/kg/d control antibody, respectively. Treatment consisted of i.v. injections of BIWI 1 given on five consecutive days, starting at day 1. […] The remaining 2 tumors grew similar to untreated control tumors.

A431 tumors = experiment: BIWI 1 monotherapy in A431 xenografted nude mice; format: in vivo, mouse; conditions: 21 mg/kg/d control antibody i.v., five consecutive days
Method: as §6
Mice were randomised into the following treatment groups (treatment/initial mean tumor volume/tumor volume range/number of mice): • Group 1: Control (PBS)/185±217 mm^3/19-424 mm^3/5 mice. • Group 2: BIWA 4 (21 mg/kg/d)/133±115 mm^3/42-302 mm^3/5 mice. • Group 3: BIWI 1 (2.1 mg/kg/d)/107±63 mm^3/42-205 mm^3′/5 mice. • Group 4: BIWI 1 (7 mg/kg/d)/132±73 mm^3/42-205 mm^3/5 mice. • Group 5: BIWI 1 (21 mg/kg/d)/107±[…]/42-205 mm^3/5 mice.
Groups of 5 mice were treated with 2.1 mg/kg/d BIWI 1, 7 mg/kg/d BIWI 1, 21 mg/kg/d BIWI 1, and 21 mg/kg/d control antibody, respectively. Treatment consisted of i.v. injections of BIWI 1 given on five consecutive days, starting at day 1.

[10] = system: antigen-positive FaDu cells; experiment: In vitro binding to FaDu cells (FACS); conditions: 1 hour on ice, FITC-labeled anti-human IgG, read-out: apparent KD
Method: The binding of BIWA 4 antibody and BIWI 1 conjugate to antigen-positive FaDu cells was determined. Cells ([…]) were incubated in 96-well plates with varying concentrations of antibody or conjugate on ice for 1 hour. The test article was washed from the plate and FITC-labeled anti-human IgG was added and the incubation on ice was continued in the dark for 1 hour. After washing, the cells were fixed with 1% paraformaldehyde and analyzed on a fluorescence activated cell sorter (FACS).

[11] = BIWI 1 7 mg/kg i.v. x5, paclitaxel 10 mg/kg i.p. x6

N.N.[Cl][Pt][Cl] [Cisplatin, reference compound]
maximum tolerated dose in the mouse strain used ([1]; cisplatin i.v. four times in weekly intervals, pilot experiment): 4 mg/kg
GDF4 (FaDuDD tumors [2]): 1.1
T4T (FaDuDD tumors [2]): 11.3 days
T/C (d 19) (FaDuDD tumors [2]): 100%

COc1cc2cc(c1Cl)N(C)C(=O)C[C@H](OC(=O)[C@H](C)N(C)C(=O)CCS)[C@]1(C)O[C@H]1[C@H](C)[C@@H]1C[C@@](O)(NC(=O)O1)[C@H](OC)/C=C/C=C(\C)C2 [DM1, N^2′-deacetyl-N^2′-(3-mercapto-1-oxopropyl)-Maytansine]
concentration toxic to cells in vitro (cells): about 10^−10 M

CC(=O)O[C@@]12CO[C@@H]1C[C@H](O)[C@@]1(C)C(=O)[C@H](O)C3=C(C)[C@@H](OC(=O)[C@H](O)[C@@H](NC(=O)OC(C)(C)C)c4ccccc4)C[C@@](O)([C@@H](OC(=O)c4ccccc4)[C@H]21)C3(C)C [Docetaxel]
GDF4 (FaDuDD tumors [3]): 1.9
T4T (FaDuDD tumors [3]): 13.5 days
T/C (d 16) (FaDuDD tumors [3]): 56%
weight loss ([1]; docetaxel monotherapy group 3 mg/kg q7dx4, FaDuDD xenografted mice): approx. −5%
GDF4 (MDA-MB-453 tumors [4]; docetaxel 3 mg/kg i.v. q7dx4): 0.8
T4T (MDA-MB-453 tumors [4]; docetaxel 3 mg/kg i.v. q7dx4): 9.0 days
T/C (d 16) (MDA-MB-453 tumors [4]; docetaxel 3 mg/kg i.v. q7dx4): 102%
GDF4 (MDA-MB-453 tumors [4]; docetaxel 6 mg/kg i.v. q7dx4): 1.3
T4T (MDA-MB-453 tumors [4]; docetaxel 6 mg/kg i.v. q7dx4): 14 days and 13.9 days
T/C (d 16) (MDA-MB-453 tumors [4]; docetaxel 6 mg/kg i.v. q7dx4): 71%

COc1cccc2c1C(=O)c1c(O)c3c(c(O)c1C2=O)C[C@@](O)(C(=O)CO)C[C@@H]3O[C@H]1C[C@H](N)[C@H](O)[C@H](C)O1 [Doxorubicin, reference compound]
animals with transient weight loss of more than 12% [5]: two
GDF4 (MDA-MB-453 tumors [6]): 1.0
T/C (d13) (MDA-MB-453 tumors [6]): 66%

CC(=O)O[C@H]1C(=O)[C@@]2(C)[C@H]([C@H](OC(=O)c3ccccc3)[C@]3(O)C[C@H](OC(=O)[C@H](O)[C@@H](NC(=O)c4ccccc4)c4ccccc4)C(C)=C1C3(C)C)[C@]1(OC(C)=O)CO[C@@H]1C[C@@H]2O [Paclitaxel, reference compound]
Initial Tumor Doubling Time (FaDu tumors [7]; BIWI 1 7 mg/kg i.v. day 1,3,5,8,10, paclitaxel 10 mg/kg i.p. day 2,4,6,9,11,13): 7 days
Complete Regression (FaDu tumors [7]; [11]): 0/8
Growth Delay Factor (FaDu tumors [7]; [11]): 0.75
T/C (median relative tumor volumes of treated versus control groups) ([8]; paclitaxel monotherapy 10 mg/kg i.v. on first day): 50%
T/C (median relative tumor volumes of treated versus control groups) ([8]; paclitaxel monotherapy 20 mg/kg i.v. on first day): 13%

BIWA 4
anti-tumor effect (FaDu tumors [9]): no anti-tumor effect
tumor volume doubling time (FaDu tumors [9]): approximately 5 days
anti-tumor effect (A431 tumors): no anti-tumor effect
tumor volume doubling time (A431 tumors): approximately 5 days
Kd [10]: 1 nM
